This passage reports melting point results from US6541638B2, “Pyrrolidine derivatives” (Hoffman-La Roche Inc., priority 2000, dated 2003).

For the compound `O=C([C@@H]1C[C@@H](S)CN1S(=O)(=O)c1ccc2ccccc2c1)N(CCc1nnn[nH]1)C1CC1`, the melting point was 173.5 °C (dec.).
